What was measured:
[1] = target: Echinoderm microtubule-associated protein-like 4 (Homo sapiens) (UniProt Q9HC35)
[2] = target: Small ribosomal subunit protein uS11 (Homo sapiens) (UniProt P62263)
[3] = target: Small nuclear ribonucleoprotein F (Homo sapiens) (UniProt P62306)
[4] = target: Signal recognition particle receptor subunit alpha (Homo sapiens) (UniProt P08240)
[5] = target: Mismatch repair endonuclease PMS2 (Homo sapiens) (UniProt P54278)
[6] = target: Sorting nexin-9 (Homo sapiens) (UniProt Q9Y5X1)
[7] = target: Arfaptin-2 (Homo sapiens) (UniProt P53365)
[8] = target: Cytochrome c oxidase assembly protein COX14 (Homo sapiens) (UniProt Q96I36)
Sequence of Cytochrome c oxidase assembly protein COX14 (Homo sapiens) (Q96I36 whole entry): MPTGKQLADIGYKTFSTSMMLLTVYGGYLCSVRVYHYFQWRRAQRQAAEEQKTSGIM

[9] = target: NADH dehydrogenase [ubiquinone] flavoprotein 2, mitochondrial (Homo sapiens) (UniProt P19404)
[10] = target: Programmed cell death protein 10 (Homo sapiens) (UniProt Q9BUL8)
[11] = target: eIF5-mimic protein 1 (Homo sapiens) (UniProt Q9Y6E2)
[12] = target: Polyadenylate-binding protein 4 (Homo sapiens) (UniProt Q13310)
Sequence of Polyadenylate-binding protein 4 (Homo sapiens) (Q13310 whole entry): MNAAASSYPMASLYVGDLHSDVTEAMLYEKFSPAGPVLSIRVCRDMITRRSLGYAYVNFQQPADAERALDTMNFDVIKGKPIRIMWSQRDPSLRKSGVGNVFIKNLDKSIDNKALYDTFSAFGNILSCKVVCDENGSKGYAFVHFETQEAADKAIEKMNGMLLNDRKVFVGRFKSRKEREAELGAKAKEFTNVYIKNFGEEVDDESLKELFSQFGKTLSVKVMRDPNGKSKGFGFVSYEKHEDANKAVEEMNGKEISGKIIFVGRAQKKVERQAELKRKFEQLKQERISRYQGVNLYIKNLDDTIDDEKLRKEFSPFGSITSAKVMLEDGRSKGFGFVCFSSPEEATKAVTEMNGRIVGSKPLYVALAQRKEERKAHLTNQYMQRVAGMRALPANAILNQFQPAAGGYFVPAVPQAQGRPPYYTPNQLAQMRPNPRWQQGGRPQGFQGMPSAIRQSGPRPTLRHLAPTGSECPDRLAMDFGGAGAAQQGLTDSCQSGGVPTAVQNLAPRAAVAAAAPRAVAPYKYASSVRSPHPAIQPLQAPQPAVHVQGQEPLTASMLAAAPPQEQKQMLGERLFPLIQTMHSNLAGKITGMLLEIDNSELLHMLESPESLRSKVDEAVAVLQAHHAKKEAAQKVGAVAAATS

[13] = target: Very-long-chain (3R)-3-hydroxyacyl-CoA dehydratase 2 (Homo sapiens) (UniProt Q6Y1H2)
Sequence of Very-long-chain (3R)-3-hydroxyacyl-CoA dehydratase 2 (Homo sapiens) (Q6Y1H2 whole entry): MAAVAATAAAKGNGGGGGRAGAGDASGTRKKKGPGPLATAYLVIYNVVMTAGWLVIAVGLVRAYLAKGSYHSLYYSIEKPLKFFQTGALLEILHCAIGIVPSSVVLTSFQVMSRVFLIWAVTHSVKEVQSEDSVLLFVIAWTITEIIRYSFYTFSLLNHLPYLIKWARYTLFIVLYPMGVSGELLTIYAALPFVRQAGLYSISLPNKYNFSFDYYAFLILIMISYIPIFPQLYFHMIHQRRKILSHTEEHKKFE

[14] = target: Tubulin alpha-4A chain (Homo sapiens) (UniProt P68366)
Homo sapiens [15] = species: Homo sapiens
[16] = target: ALK tyrosine kinase receptor (Homo sapiens) (UniProt Q9UM73)
[17] = target: Receptor for retinol uptake STRA6 (Homo sapiens) (UniProt Q9BX79)
Sequence of Receptor for retinol uptake STRA6 (Homo sapiens) (Q9BX79 whole entry): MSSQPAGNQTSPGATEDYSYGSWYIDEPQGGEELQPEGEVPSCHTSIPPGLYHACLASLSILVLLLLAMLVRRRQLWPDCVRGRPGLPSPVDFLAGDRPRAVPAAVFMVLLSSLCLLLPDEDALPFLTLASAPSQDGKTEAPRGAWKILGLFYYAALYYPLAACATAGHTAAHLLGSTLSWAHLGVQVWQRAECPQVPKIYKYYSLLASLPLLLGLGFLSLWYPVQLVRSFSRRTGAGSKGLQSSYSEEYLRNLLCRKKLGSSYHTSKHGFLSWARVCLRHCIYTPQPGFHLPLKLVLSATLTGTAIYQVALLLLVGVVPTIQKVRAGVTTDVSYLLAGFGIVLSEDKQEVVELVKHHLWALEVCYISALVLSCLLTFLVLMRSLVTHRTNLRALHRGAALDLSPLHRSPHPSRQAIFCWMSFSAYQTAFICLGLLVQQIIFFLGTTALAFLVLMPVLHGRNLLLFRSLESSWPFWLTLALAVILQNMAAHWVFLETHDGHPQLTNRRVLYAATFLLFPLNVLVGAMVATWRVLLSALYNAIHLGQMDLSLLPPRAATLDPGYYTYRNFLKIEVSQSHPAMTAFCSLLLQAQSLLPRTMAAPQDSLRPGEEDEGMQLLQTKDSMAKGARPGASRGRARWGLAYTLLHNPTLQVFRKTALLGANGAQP

[18] = target: Protein kinase C and casein kinase substrate in neurons protein 2 (Homo sapiens) (UniProt Q9UNF0)
[19] = target: Forkhead box protein K1 (Homo sapiens) (UniProt P85037)
Homo sapiens [20] = species: Homo sapiens; remark: listed apart in the source
[21] = target: Man(5)GlcNAc(2)-PP-dolichol translocation protein RFT1 (Homo sapiens) (UniProt Q96AA3)
Sequence of Man(5)GlcNAc(2)-PP-dolichol translocation protein RFT1 (Homo sapiens) (Q96AA3 whole entry): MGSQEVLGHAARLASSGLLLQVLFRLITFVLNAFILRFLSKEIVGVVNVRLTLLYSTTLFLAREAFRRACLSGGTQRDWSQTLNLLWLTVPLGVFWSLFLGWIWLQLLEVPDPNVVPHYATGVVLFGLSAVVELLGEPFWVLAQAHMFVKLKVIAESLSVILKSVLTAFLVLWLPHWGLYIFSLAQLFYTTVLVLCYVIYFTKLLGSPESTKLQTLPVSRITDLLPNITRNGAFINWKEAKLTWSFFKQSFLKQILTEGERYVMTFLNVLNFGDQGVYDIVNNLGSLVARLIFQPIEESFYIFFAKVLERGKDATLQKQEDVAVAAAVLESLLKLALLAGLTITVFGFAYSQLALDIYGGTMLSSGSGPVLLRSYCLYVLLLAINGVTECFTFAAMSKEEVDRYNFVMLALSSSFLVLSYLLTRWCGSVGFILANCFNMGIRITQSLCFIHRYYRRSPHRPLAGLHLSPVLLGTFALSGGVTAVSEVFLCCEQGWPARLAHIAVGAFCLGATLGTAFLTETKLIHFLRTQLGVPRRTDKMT

Homo sapiens [22] = species: Homo sapiens; remark: listed apart in the source
[23] = target: Periphilin-1 (Homo sapiens) (UniProt Q8NEY8)
[24] = target: Cell growth-regulating nucleolar protein (Homo sapiens) (UniProt Q9NX58)
[25] = target: Glucocorticoid receptor (Homo sapiens) (UniProt P04150)
Sequence of Glucocorticoid receptor (Homo sapiens) (P04150 whole entry): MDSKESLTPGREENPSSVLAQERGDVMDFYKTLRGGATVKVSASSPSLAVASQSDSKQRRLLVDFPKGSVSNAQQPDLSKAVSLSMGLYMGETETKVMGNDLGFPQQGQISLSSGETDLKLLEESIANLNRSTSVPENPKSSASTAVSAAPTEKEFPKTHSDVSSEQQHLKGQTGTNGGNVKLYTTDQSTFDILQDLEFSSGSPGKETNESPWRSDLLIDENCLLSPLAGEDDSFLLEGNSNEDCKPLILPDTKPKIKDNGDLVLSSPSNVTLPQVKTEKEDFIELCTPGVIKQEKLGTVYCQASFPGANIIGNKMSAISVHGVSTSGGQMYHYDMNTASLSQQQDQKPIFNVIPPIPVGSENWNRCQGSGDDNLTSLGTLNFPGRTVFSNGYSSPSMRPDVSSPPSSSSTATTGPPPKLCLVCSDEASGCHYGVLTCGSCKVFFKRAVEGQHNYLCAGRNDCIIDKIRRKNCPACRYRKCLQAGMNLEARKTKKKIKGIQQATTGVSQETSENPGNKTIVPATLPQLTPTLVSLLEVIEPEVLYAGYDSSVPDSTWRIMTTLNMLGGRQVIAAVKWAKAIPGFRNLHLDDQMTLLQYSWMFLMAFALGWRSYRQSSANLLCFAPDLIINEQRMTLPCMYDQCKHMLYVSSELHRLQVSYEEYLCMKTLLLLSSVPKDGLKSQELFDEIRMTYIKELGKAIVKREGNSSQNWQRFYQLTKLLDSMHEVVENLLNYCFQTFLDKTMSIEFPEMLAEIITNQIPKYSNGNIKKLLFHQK

[26] = target: Electrogenic aspartate/glutamate antiporter SLC25A13, mitochondrial (Homo sapiens) (UniProt Q9UJS0)
[27] = target: Pyruvate dehydrogenase protein X component, mitochondrial (Homo sapiens) (UniProt O00330)
[28] = target: Small ribosomal subunit protein RACK1 (Homo sapiens) (UniProt P63244)
Homo sapiens [29] = species: Homo sapiens; remark: listed apart in the source
Radixin (Homo sapiens) = Radixin (Homo sapiens) (UniProt P35241)
[30] = target: Complex I assembly factor ACAD9, mitochondrial (Homo sapiens) (UniProt Q9H845)
Sequence of Complex I assembly factor ACAD9, mitochondrial (Homo sapiens) (Q9H845 whole entry, one chain of several): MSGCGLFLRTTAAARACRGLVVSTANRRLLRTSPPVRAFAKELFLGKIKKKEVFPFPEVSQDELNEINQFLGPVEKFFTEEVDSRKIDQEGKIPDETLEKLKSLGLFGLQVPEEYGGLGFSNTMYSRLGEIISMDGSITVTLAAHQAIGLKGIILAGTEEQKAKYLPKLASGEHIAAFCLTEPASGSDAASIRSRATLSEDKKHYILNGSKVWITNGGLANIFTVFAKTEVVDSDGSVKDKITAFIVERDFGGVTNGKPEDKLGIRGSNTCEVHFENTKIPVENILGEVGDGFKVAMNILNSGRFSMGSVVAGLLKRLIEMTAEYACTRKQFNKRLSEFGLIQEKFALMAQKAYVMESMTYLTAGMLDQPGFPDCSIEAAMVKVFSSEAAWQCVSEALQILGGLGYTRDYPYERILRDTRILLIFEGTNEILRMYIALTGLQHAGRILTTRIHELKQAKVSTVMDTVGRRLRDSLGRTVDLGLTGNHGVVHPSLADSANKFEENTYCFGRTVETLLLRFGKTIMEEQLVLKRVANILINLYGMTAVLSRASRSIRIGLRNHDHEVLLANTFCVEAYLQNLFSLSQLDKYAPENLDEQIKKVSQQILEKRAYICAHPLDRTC

Homo sapiens [31] = species: Homo sapiens; remark: listed apart in the source
[32] = target: 14-3-3 protein zeta/delta (Homo sapiens) (UniProt P63104)
Sequence of 14-3-3 protein zeta/delta (Homo sapiens) (P63104 whole entry): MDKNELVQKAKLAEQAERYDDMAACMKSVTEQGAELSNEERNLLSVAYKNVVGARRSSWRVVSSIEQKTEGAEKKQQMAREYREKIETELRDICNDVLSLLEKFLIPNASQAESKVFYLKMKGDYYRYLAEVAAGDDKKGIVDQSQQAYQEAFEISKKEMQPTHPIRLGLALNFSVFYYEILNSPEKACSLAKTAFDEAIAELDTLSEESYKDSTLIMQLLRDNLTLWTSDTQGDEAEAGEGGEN

[33] = target: ATP-binding cassette sub-family F member 2 (Homo sapiens) (UniProt Q9UG63)
Sequence of ATP-binding cassette sub-family F member 2 (Homo sapiens) (Q9UG63 whole entry): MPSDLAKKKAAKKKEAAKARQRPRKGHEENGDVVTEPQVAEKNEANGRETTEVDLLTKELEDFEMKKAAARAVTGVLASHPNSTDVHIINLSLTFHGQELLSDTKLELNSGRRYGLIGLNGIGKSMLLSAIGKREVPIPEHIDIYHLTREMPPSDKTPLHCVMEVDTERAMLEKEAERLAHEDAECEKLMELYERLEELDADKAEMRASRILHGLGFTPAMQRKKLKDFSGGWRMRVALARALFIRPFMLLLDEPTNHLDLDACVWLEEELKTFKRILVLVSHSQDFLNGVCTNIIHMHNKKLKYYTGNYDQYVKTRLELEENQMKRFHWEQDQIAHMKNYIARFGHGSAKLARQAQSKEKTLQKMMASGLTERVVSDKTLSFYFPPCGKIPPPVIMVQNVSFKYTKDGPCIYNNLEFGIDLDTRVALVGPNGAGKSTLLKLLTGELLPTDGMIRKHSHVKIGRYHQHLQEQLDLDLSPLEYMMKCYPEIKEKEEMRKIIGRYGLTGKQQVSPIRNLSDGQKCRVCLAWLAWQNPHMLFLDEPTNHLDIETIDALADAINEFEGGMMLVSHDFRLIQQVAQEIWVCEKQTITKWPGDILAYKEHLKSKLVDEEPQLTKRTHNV

[34] = target: DnaJ homolog subfamily C member 13 (Homo sapiens) (UniProt O75165)
[35] = target: Membrane-bound glycerophospholipid O-acyltransferase 1 (Homo sapiens) (UniProt Q6ZNC8)
[36] = target: Brefeldin A-inhibited guanine nucleotide-exchange protein 1 (Homo sapiens) (UniProt Q9Y6D6)
[37] = target: Ras-related protein Rab-6A (Homo sapiens) (UniProt P20340)
[38] = target: Acyl-CoA dehydrogenase family member 11 (Homo sapiens) (UniProt Q709F0)
[39] = target: RNA-splicing ligase RtcB homolog (Homo sapiens) (UniProt Q9Y3I0)
Matrin-3 (Homo sapiens) = Matrin-3 (Homo sapiens) (UniProt P43243)
[40] = target: Conserved oligomeric Golgi complex subunit 6 (Homo sapiens) (UniProt Q9Y2V7)
[41] = target: NADH dehydrogenase [ubiquinone] 1 alpha subcomplex subunit 13 (Homo sapiens) (UniProt Q9P0J0)
[42] = target: Very-long-chain (3R)-3-hydroxyacyl-CoA dehydratase 3 (Homo sapiens) (UniProt Q9P035)
[43] = target: Tubulin beta-2B chain (Homo sapiens) (UniProt Q9BVA1)
Sequence of Tubulin beta-2B chain (Homo sapiens) (Q9BVA1 whole entry): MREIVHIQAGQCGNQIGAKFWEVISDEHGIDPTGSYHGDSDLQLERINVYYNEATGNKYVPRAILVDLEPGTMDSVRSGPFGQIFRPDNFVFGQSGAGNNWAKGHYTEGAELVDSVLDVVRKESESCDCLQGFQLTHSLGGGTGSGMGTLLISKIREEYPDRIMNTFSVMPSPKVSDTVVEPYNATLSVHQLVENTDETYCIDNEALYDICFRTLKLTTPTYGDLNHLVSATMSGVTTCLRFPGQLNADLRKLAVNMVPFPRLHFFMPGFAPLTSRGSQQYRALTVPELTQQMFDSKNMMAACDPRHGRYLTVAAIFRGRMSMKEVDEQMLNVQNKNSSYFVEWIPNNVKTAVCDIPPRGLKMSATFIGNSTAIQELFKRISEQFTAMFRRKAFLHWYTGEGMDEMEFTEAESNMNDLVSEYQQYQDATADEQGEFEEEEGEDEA

[44] = target: Very long-chain specific acyl-CoA dehydrogenase, mitochondrial (Homo sapiens) (UniProt P49748)
[45] = target: Serine-threonine kinase receptor-associated protein (Homo sapiens) (UniProt Q9Y3F4)
Note: assay method not described here.

Sequence of Small nuclear ribonucleoprotein F (Homo sapiens) (P62306 2-86 limits assumed): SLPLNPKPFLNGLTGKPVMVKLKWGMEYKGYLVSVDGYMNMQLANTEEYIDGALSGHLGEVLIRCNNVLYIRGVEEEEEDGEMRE

## Cc1ccc(C(=O)Nc2cccc(C(F)(F)F)c2)cc1Nc1nc(-c2cccnc2)nc2c1cnn2C
[1]
  ED50: 761 nM
[2]
  ED50: 5300 nM
[3]
  ED50: 143000 nM
[4]
  ED50: 39400 nM
[5]
  ED50: 89900 nM
[6]
  ED50: 494 nM
[7]
  ED50: 211000 nM
[8]
  ED50: 4.96 nM
[9]
  ED50: 571 nM
[10]
  ED50: 2.15 nM
[11]
  ED50: 16.7 nM
[12]
  ED50: 12100 nM
[13]
  ED50: 23700 nM
[14]
  ED50: 12.2 nM
Homo sapiens [15]
  ED50: 887 nM
[16]
  ED50: 1.43 nM
[17]
  ED50: 73.5 nM
[18]
  ED50: 579 nM
[19]
  ED50: 3.59 nM
Homo sapiens [20]
  ED50: 3230 nM
[21]
  ED50: 1130 nM
Homo sapiens [22]
  ED50: 15700 nM
[23]
  ED50: 336 nM
[24]
  ED50: 4370 nM
[25]
  ED50: 53300 nM
[26]
  ED50: 1180 nM
[27]
  ED50: 48.2 nM
[28]
  ED50: 2870 nM
Homo sapiens [29]
  ED50: 0.533 nM
Radixin (Homo sapiens)
  ED50: 2 nM
[30]
  ED50: 42800 nM
Homo sapiens [31]
  ED50: 15500 nM
[32]
  ED50: 4.53 nM
[33]
  ED50: 5470 nM
[34]
  ED50: 10300 nM
[35]
  ED50: 900 nM

## Cc1ccc(C(=O)Nc2cccc(C(F)(F)F)c2)cc1Nc1nc(-c2cccnc2)nc2nn(C)cc12
[36]
  ED50: 516 nM
[37]
  ED50: 535 nM
[38]
  ED50: 137 nM
[39]
  ED50: 38.3 nM
Matrin-3 (Homo sapiens)
  ED50: 22.7 nM
[40]
  ED50: 139000 nM
[41]
  ED50: 5.85 nM
[42]
  ED50: 17.3 nM
[43]
  ED50: 14 nM
[44]
  ED50: 51 nM
[45]
  ED50: 17.7 nM

— ChEMBL document CHEMBL5649169 (ChemMedChem, 2018)
